Columns and labels:
[1] = Kinetic study in dogs (oral administration, plasma levodopa); details: dog, in vivo, po, 3 mg/kg
Source text: The relationship between the blood concentration of levodopa and side effects in patients who take levodopa has been gradually elucidated. […] In order to reduce the number of doses of levodopa and avoid side effects such as dyskinesia and wearing-off in patients who take levodopa, it is necessary to maintain the blood concentration of levodopa within a therapeutic range as long as possible.
These levodopa prodrugs are prodrugs containing an ester bond, and therefore, it is considered that among a number of enzymes, carboxyesterase plays the most important role in the process of producing levodopa by metabolizing the compound after the compound is administered in vivo. Therefore, as an animal species to be used for performing a kinetic study, dogs in which the organ distribution of carboxyesterase is most similar to that of humans were selected as subjects for evaluation.
The thus obtained drug solution was administered by gavage through a gastric tube into the stomach of dogs (male beagle dogs) which were fasted from the day before the administration. At 15 and 30 minutes, and 1, 2, 4, 6, and 8 hours after administration of the drug solution, 1 mL of blood was collected from a cephalic vein with a heparinized syringe. Immediately after the collection, the collected blood was centrifuged in a desktop centrifuge at 14500 rpm for 45 seconds. Then, acetonitrile containing 0.1125% formic acid was added to the thus obtained plasma in an amount as twice as large as the volume of the plasma, followed by stirring, and then, the resulting sample was stored at −20° C. until measurement.
The sample was thawed on the measurement day, followed by stirring and centrifugation at 13000 rpm for 3 minutes (at 4° C.). The resulting supernatant was filtered and the filtrate was analyzed by LC/MS/MS. The analysis was performed by LC/MS/MS under the following conditions.
Measurement Apparatus: API-5000 (manufactured by Applied Biosystems, Inc.)
Analytical column: CAPCELL PAK CR (1:4) (4.6 mm, I.D.×250 mm, 5 μm)
Analytical column temperature: 40° C.
Mobile phase: A: 5 mM ammonium formate (pH 3.9), B: acetonitrile (A/B=17/3)
Detection (levodopa): m/z (precursor): 196.19, m/z (product): 134.99
DP (Declustering Potential): −60
CE (Collision Energy): −25
CXP (Collision Cell Exit Potential): −17
Incidentally, the numerical value in the column which indicates the dose expressed in terms of levodopa refers to a dose equivalent to that of levodopa.

[2] = Kinetic study in dogs (combination use with dopa decarboxylase inhibitor carbidopa); format: in vivo, dogs (male beagle dogs); details: dogs given carbidopa 60 mg/kg; oral Example 5 18.6 mg/kg (6 mg/kg expressed in terms of levodopa)
Experimental: (3) Kinetic Study in Dogs (Combination Use with Dopa Decarboxylase Inhibitor (DCI)) […] As the DCI, carbidopa was used. […] The preparation of an analytical sample and analysis were carried out according to the method described in the same section in the Biological Example 1(1).

[3] = Simulation of kinetics in human blood on basis of results of kinetic study in dogs; details: simulated in humans versus SINEMET 100 mg tablet
Experimental: (4) Simulation of Kinetics in Human Blood on Basis of Results of Kinetic Study in Dogs
For the purpose of validating whether or not the effect of releasing levodopa over a long period of time of the compound of the present invention observed in the kinetic study in dogs is also observed in humans, a simulation of kinetics in human blood was carried out on the basis of the results of the kinetic study in dogs described in the above section (3).
By using the values obtained in the kinetic study in dog blood in the above section (3), a prediction model that simulates the kinetics in human blood was constructed.
Specifically, the blood concentration-time profile of levodopa or the compound of the present invention obtained in the kinetic study in dogs was input into Phoenix WinNonlin version 6.1 (Pharsight Corporation), which is kinetic analysis software, and the fitting of the plasma concentration of levodopa was carried out, whereby a prediction model that simulates the blood kinetics of levodopa was constructed.
Into this prediction model, the values of blood kinetics when a levodopa preparation was administered to humans described in the literature (Br. J. Clin. Pharm., 1989, Vol. 28, pp. 61-69, D. R. C. Robertson et al.) were input, and the kinetics of the compound of the present invention in human blood was simulated. […]

p53R2 = experiment: Mutagenicity assay using mammalian cells (NESMAGET method); format: cell-based
Experimental: In the treatment of Parkinson's disease and/or Parkinson's syndrome, there is a possibility that a levodopa prodrug is continued to be taken over a long period of time of several years to several decades. Therefore, an evaluation was carried out as to whether or not the compound of the present invention has mutagenicity by a mutagenicity assay using mammalian cells.
A mutagenicity assay using mammalian cells was carried out as a commissioning test to be undertaken by Nissin Foods Holdings Co., Ltd. The present method also called NESMAGET method is a method in which the expression of p53R2 which is a DNA repair gene is detected by luciferase activity, and the specific experimental technique is described in JP-A-2005-000024 and Japanese Patent No. 4243716. In the determination as to whether or not the result of this test was positive, the luciferase activity of p53R2 in the case of a vehicle control (0.3% dimethylsulfoxide) was taken as 100%, and a concentration at which a relative luciferase activity exceeded 200% was determined to be “concentration at which mutagenicity was determined to be positive”.

[4] = tested on: rat model injected with 6-hydroxydopamine into the medial forebrain bundle; experiment: Rotation test in model injected with 6-hydroxydopamine into medial forebrain bundle; format: in vivo, rats (male Crl:CD(SD)IGS); details: 6-OHDA rats
Source text: In the experiment, male Crl:CD(SD)IGS rats (Charles River Japan, Inc.) supplied at 5 weeks of age were used. The rats were housed in Econ cages (4 or less rats per cage) and were raised by giving free access to solid feed CRF-1 (Oriental Yeast Co., Ltd.) and tap water (in a water bottle) until they were subjected to the experiment. When acclimation after shipping was completed, each of the Crl:CD(SD)IGS rats at 6 weeks of age was anesthetized with pentobarbital sodium (Somnopentyl (registered trademark) injectable solution, 35 mg/kg, intraperitoneal injection). Subsequently, for the purpose of preventing damage to norepinephrine neurons by 6-hydroxydopamine (6-OHDA), desipramine (25 mg/kg) was intraperitoneally injected, and the rat was held and fixed by a brain fixation device. A small bone window was opened with a hand drill at a desired site, and 6-OHDA was injected into the medial forebrain bundle according to the brain atlas of Paxinos and Watson using a 30 G cannula (Brain Science Idea. Co. Ltd.) with a needle tip cut at an angle of 45° (site of injection: A=−4.5 mm, L=+1.2 mm, and V=−7.8 mm with respect to the bregma, injection amount: 8 μg/4 μL/8 min/site in each case). […] Thereafter, the burr hole was closed with an instant glue, and then sutured and disinfected with iodine tincture. […] In a rotation test, a device configured such that a black plastic circular cylinder having a diameter of 30 cm and a height of 35 cm was placed upright in a black-painted bowl having an opening diameter of 35 cm and a bottom diameter of 17 cm was used (the height of the curve from the bottom of the bowl to the bottom edge of the cylinder was set to 7 cm). The rat was placed in the device (one rat per device) and acclimated to the device for 30 minutes. Thereafter, a test substance was administered to the rat, and the rat was returned to the same device and videotaped. […] As for the number of rotations, a 360° rotation in one direction was determined to be one rotation. In the case where the direction (body's direction of movement or movement direction) was changed during rotation, the rotation was not included in the count. […] Incidentally, in each case, benserazide which is a dopa decarboxylase inhibitor (8 mg/kg) was orally administered concomitantly. […] In addition, the respective values are each a mean of the values obtained using 11 rats in each group and its standard error.

Compound: CC(C)(OC(=O)c1ccccc1)C(=O)Oc1ccc(C[C@H](N)C(=O)O)cc1OC(=O)C(C)(C)OC(=O)c1ccccc1.Cl [Example 5, (2S)-2-Amino-3-(3,4-bis((2-(benzoyloxy)-2-methylpropanoyl)oxy)phenyl)propanoic acid hydrochloride]
- AUC (area under the blood concentration-time curve of levodopa) [1]: 0.89 μg^+ hr/mL
- Cmax/C6 hr (ratio of maximum plasma concentration and plasma concentration at 6 hours after oral administration, levodopa) ([1]; male, beagle): 8.0
- time after administration at which plasma levodopa reached Cmax [2]: 4 h
- time in the therapeutic range in humans relative to the currently available levodopa preparation [3]: about 3.4 times
- Mutagenicity assay (NESMAGET) Concentration at which mutagenicity was determined to be positive (p53R2; concentration at which relative luciferase activity of p53R2 exceeded 200% (vehicle control 0.3% dimethylsulfoxide = 100%)): >200 µg/mL
- determination of mutagenicity (p53R2; positive = relative luciferase activity of p53R2 exceeded 200%, compound of the present invention up to 200 μg/mL): mutagenicity was not observed
- lapse from administration after which the number of rotations began to increase ([4]; oral Example 5 100 mg/kg expressed in terms of levodopa, benserazide 8 mg/kg): ≥ 60 min
- time after administration at which the number of rotations reached a maximum value ([4]; oral, levodopa 30 mg/kg or Example 5 100 mg/kg expressed in terms of levodopa, benserazide 8 mg/kg): 140 min
- maximum value of the number of rotations per 10 minutes ([4]; oral, levodopa 30 mg/kg or Example 5 100 mg/kg expressed in terms of levodopa, benserazide 8 mg/kg concomitantly, N=11): ≥ 90 times
